The series is described as follows: Stability of the solid form upon storage. In kind it is physicochemical. The conditions noted are these: storage at ambient conditions.

Results on one molecule are retold here after patent US10179800B2, “Crystalline forms of S-[4-(3-fluoro-3-methylbutyryloxy)but-2-ynyl] 6-α,9-α-difluoro-17-α-(furan-2-yl)carbonyloxy-11-β-hydroxy-16-α-methyl-3-oxoandrosta-1,4-diene-17-β-carbothioate” (Sun Pharma Advanced Research Company Limited, priority 2015, dated 2019).

For the molecule `C[C@@H]1CC2C3C[C@H](F)C4=CC(=O)C=C[C@]4(C)[C@@]3(F)[C@@H](O)C[C@]2(C)[C@@]1(OC(=O)c1ccco1)C(=O)SCC#CCOC(=O)CC(C)(C)F` (stereo partly drawn) [amorphous form, S-[4-(3-fluoro-3-methylbutyryloxy)but-2-ynyl]6α,9α-difluoro-17α-(furan-2-yl)carbonyloxy-11β-hydroxy-16α-methyl-3-oxoandrosta-1,4-diene-17β-carbothioate], the stability upon storage result is reported as “unstable upon storage even at ambient conditions”.
